pIC50: −log10 of the molar value.
Tests used:
[1] = biological target: T1, yIre1 (recombinant yeast IRE1) (Saccharomyces cerevisiae, UniProt P32361); assay: in vitro RNase assay, HAC1 and BLOS1 RNA cleavage; format: biochemical; settings: activator, 100 μM, 1 μM yIre1; Q site at kinase/RNase interface
T1 sequence (P32361 641-1115 limits assumed): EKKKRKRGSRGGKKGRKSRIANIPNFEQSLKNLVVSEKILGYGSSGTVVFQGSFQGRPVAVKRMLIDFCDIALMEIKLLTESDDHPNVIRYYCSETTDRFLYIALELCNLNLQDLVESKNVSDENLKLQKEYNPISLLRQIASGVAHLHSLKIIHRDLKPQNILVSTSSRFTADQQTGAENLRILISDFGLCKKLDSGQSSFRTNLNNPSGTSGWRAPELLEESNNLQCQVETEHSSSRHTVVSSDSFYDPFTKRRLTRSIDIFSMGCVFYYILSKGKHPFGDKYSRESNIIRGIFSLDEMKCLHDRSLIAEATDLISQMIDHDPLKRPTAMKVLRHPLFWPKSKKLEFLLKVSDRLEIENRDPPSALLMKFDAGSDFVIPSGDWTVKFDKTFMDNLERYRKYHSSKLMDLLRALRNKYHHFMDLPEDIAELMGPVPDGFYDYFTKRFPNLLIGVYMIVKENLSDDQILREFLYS

[2] = biological target: T1, yIre1 (recombinant yeast IRE1); assay: in vitro RNase assay, radiolabeled HAC1 RNA cleavage; format: biochemical

Structure (SMILES)	in vitro RNase assay, HAC1 and BLOS1 RNA cleavage (activation) [1]	pIC50 [2]
O=c1c(O)c(-c2ccc(O)c(O)c2)oc2cc(O)cc(O)c12 [quercetin]	binding of Q to Ire1 was sufficient to promote cleavage of RIDD substrate RNA	
O=S(=O)(N=Cc1c(O)ccc2ccccc12)c1cccs1 [STF-083010]		~4.52

— publication PMC4486022 (Cell reports, 2014)
